Experimental data taken from PMC9775191, “A Subset Screen of the Compounds Australia Scaffold Library Identifies 7-Acylaminodibenzoxazepinones as Potent and Selective Hits for Anti-Giardia Drug Discovery” (Biomedicines, 2022).
Where two headings read alike, the source gives them in different places.

Legend:
[1] = test system: G. duodenalis BRIS/91/HEPU/1279; assay: Primary Giardia screen at 10 µM (live-cell imaging, automated counting); assay type: cell-based, Giardia duodenalis; details: for inhibition at 10 µM: Giardia duodenalis
Summary of the method: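 Singlicate, 10 μM final, 0.2% DMSO; sealed chambers, 3% O2/5% CO2/N2. Counts by live-cell imaging at 24 h and 48 h. % growth vs vehicle, media background subtracted; Z' per plate.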

[2] = test system: G. duodenalis BRIS/91/HEPU/1279; assay: Giardia dose response assay, assemblage B; assay type: cell-based, Giardia duodenalis; details: for IC50: Giardia duodenalis
Summary of the method: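 Assemblage B trophozoites (BRIS/91/HEPU/1279, 1.5 × 10^4 parasites/well) faced 8–12-point doubling dilutions in duplicate, incubated 48 h at 37 °C under 3% O2, 5% CO2 in N2. Parasites were imaged and counted at 24 and 48 h. Growth inhibition was taken versus vehicle controls minus background, with IC50 by log-linear interpolation.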

[3] = test system: BRIS/87/HEPU/713; assay: Giardia dose response assay, assemblage A; assay type: cell-based; details: Giardia duodenalis
Experimental: (§1) In these assays, compounds were serially diluted (8–12-point doubling dilutions in technical duplicate) in DMSO control media, with all test wells inoculated with parasites (1.5 × 10^4 parasites for BRIS/91/HEPU/1279 and BRIS/91/HEPU/1279m1, or 3 × 10^3 parasites for BRIS/87/HEPU/713). Albendazole (positive control) plates were run with each experiment. All plates were sealed in culture chambers and gassed with 3% O2, 5% CO2 in N2 and incubated at 37 °C for 48 h, with parasites imaged and enumerated at 24 and 48 h. Growth inhibition was calculated as a percentage relative to vehicle controls minus any background as described above and IC50 values were determined using log-linear interpolation as previously described. […] Statistical comparison of IC50 values when required were performed using Student’s t-test.

[4] = test system: BRIS/91/HEPU/1279m1; assay: Giardia dose response assay, metronidazole resistant line; assay type: cell-based; details: Giardia duodenalis
Experimental: as §1

[5] = test system: Neonatal foreskin fibroblast (NFF) cells; assay: Mammalian cell cytotoxicity assay (sulforhodamine B); assay type: cell-based, human; details: Table S2; NFF vs 48 h Giardia IC50
Summary of the method: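 Dose–response from a top concentration of 100 µM was run on NFF cells, with sulforhodamine B as the viability read-out. Plates included media, no-compound, DMSO and chloroquine controls. Fibroblast IC50 was divided by the G. duodenalis BRIS/91/HEPU/1279 IC50 to give the selectivity index.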

[6] = test system: Escherichia coli (ATCC 25922); assay: Anti-bacterial activity assay; assay type: cell-based
Summary of the method: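 Compounds tested once at 50 µM in duplicate against mid-log cultures at 5 × 10^5 CFU/mL, incubated 18 h at 37 °C without shaking. Growth read by absorbance at 600 nm; percentage inhibition calculated relative to bacteria-only wells. Vancomycin (Gram-positive) and colistin (Gram-negative) served as plate controls.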

[7] = test system: BRIS/91/HEPU/1279; assay: Combination studies (isobolograms); assay type: cell-based, Giardia duodenalis; details: 24 h
Experimental: The activity of each combination was assessed against BRIS/91/HEPU/1279. A total of 14, 8-point dose–response assays were performed with each combination in triplicate on at least two occasions in 96-well microtiter plates (1.5x10^4 BRIS/91/HEPU/1279 trophozoites per well). Plates were incubated in chambers gassed with 3% O2, 5% CO2 in N2 at 37 °C for 24 h before parasite growth was assessed by imaging. Media and vehicle controls were included on each plate. […] Isoboles were fitted using the standard hyperbolic function defined by the parameter I as previously described, where Positive values of I indicate synergy, negative values indicate antagonism and addition occurs when I equals 0. The significance of the difference of I from zero was assessed with Student’s t test.

[8] = In vivo tolerability assessment
Experimental: In brief, separate groups of three mice were administered single, increasing doses of compound via oral gavage to examine tolerability. […] After a week of observation, mice in each group were euthanized and samples collected for pathology assessment. The highest dose assessed was 50 mg/kg. To further assess the safety of SN00797640, this highest dose was also administered to a final group of three mice, daily for three days.

For `Cc1ccc(C(=O)Nc2ccc3c(c2)N(C)C(=O)c2ccccc2O3)cc1` [SN00797640], the “Average % Inhibition 48h” value ([1]; 48 h) was > 90%, the inhibition at 10 µM ([1]; 24 h, first singlicate assay, read-out: % Inhibition n=1 24h) was 97.5% and the inhibition at 10 µM ([1]; 24 h, re-assessment, read-out: % Inhibition n=2 24h) was 83.1%. It also gave an inhibition at 10 µM ([1]; 24 h, read-out: Average % Inhibition 24h) of 90.3%, an inhibition at 10 µM ([1]; 48 h, first singlicate assay, read-out: % Inhibition n=1 48h) of 96.3% and an inhibition at 10 µM ([1]; 48 h, re-assessment, read-out: % Inhibition n=2 48h) of 97.2%. The inhibition at 10 µM ([1]; 48 h, read-out: Average % Inhibition 48h) was 96.8%, the “fold more potent than metronidazole” value ([2]; 48 h IC50) was > 10 fold and the IC50 ([2]; 24 h, read-out: G. duodenalis IC50 24h, Table S2, 24 h, ±SD, max 10 µM) was 380 ± 50 nM. It also gave an IC50 ([2]; 48 h, BRIS/91/HEPU/1279, 48 h, mean ± SD, read-out: IC50 Giardia (48 h)) of 180 nM, an IC50 ([2]; 48 h, BRIS/91/HEPU/1279, 48 h, read-out: 48 h IC50) of 181 nM and an IC50 ([3]; 48 h, read-out: 48 h IC50) of 115 ± 30 nM. The IC50 ([3]; read-out: 24 h IC50, 24 h) was 164 ± 11 nM, the IC50 ([4]; 24 h, read-out: 24 h IC50) was 160 ± 27 nM and the IC50 ([4]; 48 h, read-out: 48 h IC50) was 124 ± 3 nM. For the same compound, the “SI (48h Gd)” value [5] was > 55, the “Bacterial Inhibition E. coli” value ([6]; 50 µM) was < 5% and the inhibition at 50 µM ([6]; Escherichia coli, ATCC25922, 50 µM, read-out: Bacterial Inhibition E. coli) was 3.64%. The “interaction parameter I” value ([7]; combined with albendazole, synergistic) was 4.7, the “interaction parameter I” value ([7]; combined with metronidazole, additive) was −0.3 and the tolerability ([8]; oral gavage, up to 50 mg/kg daily for three consecutive days) was “well tolerated with no adverse reactions detected”. For the same compound, the “histological analysis of liver and kidney samples” value ([8]; test animals of tolerability study) was “no toxicity”.
